Source: US9643936B1, “Form of tribenuron-methyl, a process for its preparation and use of the same” (ROTAM AGROCHEM INTERNATIONAL COMPANY LIMITED, priority 2015, dated 2017)

Legend:
Type in all cases: physicochemical
[1] = Determining water solubility (pH 7 buffer, HPLC of supernatant); conditions: for Concentration measured by HPLC after treatment, %: pH 7 buffer, 20° C.
Experimental: A stock pH 7 buffer solution was prepared by adding aqueous sodium hydroxide solution (0.1 M, 145 mL) to aqueous potassium dihydrogen phosphate solution (0.1 M, 250 mL), and then adding sufficient distilled water to adjust the final volume to 500 mL. At least 1 time and up to about 5 times the amount of tribenuron-methyl needed for saturation was added to a mixing vessel containing stock buffer solution at the test temperature (e.g., 20° C.). The mixture was magnetically stirred in the dark while being maintained at the test temperature. Samples were periodically removed for analysis. The samples were centrifuged using a high speed, temperature-controlled centrifuge at the test temperature for about 20 minutes at >12000 G to remove suspended particles. An aliquot of each supernatant was taken for analysis. The concentration of tribenuron-methyl in the supernatant was determined by a high pressure liquid chromatography (HPLC) with a reversed phase chromatography column and UV detection. The method should include development of best-fit calibration curves based on at least three standards using linear regression analysis. Samples were successively withdrawn from the mixing vessel and analyzed until three successive samples show little or no variation in concentration. The test is preferably replicated to ensure accuracy.

[2] = Cleanout test (residual tribenuron-methyl in acetonitrile extract of rinsed bottle); conditions: for Cleanout rating, % (concentration of tribenuron-methyl in the acetonitrile solution): lower rating = more effective cleanout
Experimental: The cleanout test was conducted by dispersing in water a sample to produce a concentration that is normally used when applying the herbicide: 25% tribenuron-methyl. The sample was added to tap water (300 mL) in a 400 mL beaker and magnetically stirred for 2 minutes. The mixture was then stirred for 2 minutes, whereupon the resulting dispersion was dispensed in three 100 mL aliquots to 4-oz (118 mL) polyethylene bottles. The bottles were capped, inverted twice and allowed to stand overnight.
After standing overnight, each individual bottle was inverted twice and the liquid contents were then poured out. Tap water (10 mL) was added and the bottle was inverted until all sediment was re-suspended, whereupon the contents were poured out. Tap water (100 mL) was added and the bottle was inverted twice and then allowed to stand undisturbed for 10 minutes. The bottle was inverted twice more and the contents were poured out. Acetonitrile (10 mL) was added to the bottle to extract any remaining material. The acetonitrile solution was analyzed by reversed-phase liquid chromatography with UV detection. The cleanout rating (the concentration of tribenuron-methyl herbicide in the acetonitrile solution) is reported in % in Table 6 below.

[3] = Viscosity (stated finding, no method given)
[4] = OD formulation, measured vs original concentration 40%
[5] = OD formulation, original concentration 40%
[6] = SG formulation, measured vs original concentration 25%
[7] = SG formulation, original concentration 25%
[8] = WG formulation, measured vs original concentration 25%
[9] = WG formulation, original concentration 25%

SMILES	Solubility [1, 4] [%]	Concentration measured by HPLC after treatment, % [1, 5] [%]	Solubility [1, 6] [%]	Concentration measured by HPLC after treatment, % [1, 7] [%]	Solubility [1, 8] [%]	Concentration measured by HPLC after treatment, % [1, 9] [%]	Cleanout rating, % (concentration of tribenuron-methyl in the acetonitrile solution) ([2]; OD formulation, prepared in Example 1) [%]	Cleanout rating, % (concentration of tribenuron-methyl in the acetonitrile solution) ([2]; SG formulation, prepared in Example 1) [%]	Cleanout rating, % (concentration of tribenuron-methyl in the acetonitrile solution) ([2]; WG formulation) [%]	Viscosity (in words) ([3]; listed as tribenuron-methyl in amorphous state)	Solubility (in words) ([1]; compared with amorphous tribenuron-methyl)	Cleanout rating, % (concentration of tribenuron-methyl in the acetonitrile solution) ([2]; OD formulation) [%]	Cleanout rating, % (concentration of tribenuron-methyl in the acetonitrile solution) ([2]; SG formulation) [%]	Cleanout properties (in words) ([2]; compared with known amorphous tribenuron-methyl product)	Viscosity (in words) ([3]; listed as crystalline modification I of tribenuron-methyl)
COC(=O)c1ccccc1S(=O)(=O)NC(=O)N(C)c1nc(C)nc(OC)n1 [Amorphous tribenuron-methyl (prepared in Example 1)] [methyl 2-[4-methoxy-6-methyl-1,3,5-triazin-2-yl(methyl)carbamoylsulfamoyl]benzoate, reference compound]	35	14	60	15	48	12	26	10	13	highly viscous	–	–	–	–	–
COC(=O)c1ccccc1S(=O)(=O)NC(=O)N(C)c1nc(C)nc(OC)n1 [Tribenuron-methyl, crystalline modification I, 98% (prepared] [methyl 2-[4-methoxy-6-methyl-1,3,5-triazin-2-yl(methyl)carbamoylsulfamoyl]benzoate]	88	35	99.6	24.9	92	23	–	–	2	–	significant increase in its solubility	5	0.1	markedly superior cleanout properties	significant decrease in its viscosity
